Laboratory results as given in patent publication US8115059B1, “Gene expression modulation system for use in plants and method for modulating gene expression in plants” (University of Kentucky Research Foundation, priority 2005, dated 2012).

Key:
ms45 mutant = settings: transgenic ms45 maize with Ms45 under EcR-based switch; cited from earlier work
[1] = target: GAL4 DBD:CfEcR fusion protein (Choristoneura fumiferana); test: cell-based or functional assay

Compound: COc1cccc(C(=O)NN(C(=O)c2cc(C)cc(C)c2)C(C)(C)C)c1C [methoxyfenozide]
- restoration of male fertility (ms45 mutant): able to restore male fertility

Compound: VP16 AD:LmRXR triple mutant A62S:T81H:V123I (Lm-7) fusion protein (receptor)
- methoxyfenozide concentration at maximum luciferase activity, two-hybrid gene switch, tobacco protoplasts (nM methoxyfenozide) [1]: 80
